Experiments:
Test in all cases: drug sensitivity score (DSS) (DSS (unitless, 0-50 scale)); higher = more sensitive (stronger viability inhibition); extreme values may be limits of the assay
Conditions in all cases: 72 h; culture: 2D
[1] = system: Bowes
How it was run: (§1)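 A 527-compound oncology library was screened in 384-well plates against melanoma cell lines and patient-derived melanoma cultures grown in 2D, the cultures at 1000–1500 cells per well. Each compound, in DMSO or water, was applied at five concentrations over a 10,000-fold range and incubated for 72 h at 37 °C before CellTiter-Glo luminescence readout of viability. A drug sensitivity score, a modified area-under-curve measure, was calculated from curves fitted in the in-house Breeze software.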

[2] = system: FM-MEL-2
How it was run: as §1

[3] = system: FM-MEL-3
How it was run: as §1

[4] = system: FM-MEL-6
How it was run: as §1

[5] = system: SK-MEL-28
How it was run: as §1

[6] = system: SK-MEL-2
How it was run: as §1

[7] = system: WM165
How it was run: as §1

[8] = system: WM852
How it was run: as §1

| Compound | drug sensitivity score [1] | drug sensitivity score [2] | drug sensitivity score [3] | drug sensitivity score [4] | drug sensitivity score [5] | drug sensitivity score [6] | drug sensitivity score [7] | drug sensitivity score [8] |
| --- | --- | --- | --- | --- | --- | --- | --- | --- |
| Nc1nc(Cl)nc2c1ncn2[C@@H]1O[C@H](CO)[C@@H](O)[C@@H]1F [Clofarabine] | 10.9 | 2.4 | 11.8 | 9.6 | 10.8 | 7.6 | 16.6 | 8.6 |
| CC(C)Oc1ccc(-c2nn([C@@H](C)c3oc4ccc(F)cc4c(=O)c3-c3cccc(F)c3)c3ncnc(N)c23)cc1F [TGR-1202] | 0.9 | 0.9 | 0 | 0 | 0 | 0 | 0 | 1 |
| Nc1nc2[nH]cnc2c(=S)[nH]1 [Thioguanine] | 8.5 | 5.4 | 0 | 2.6 | 4.3 | 3.5 | 12.8 | 6.8 |
| NC(=O)c1cccc(-c2cccc(OC(=O)NC3CCCCC3)c2)c1 [URB597] | 0 | 0 | 0 | 0 | 0 | 0 | 0 | 0 |
| CC(C)C[C@@H](C(=O)N[C@H](C(=O)OC1CCCC1)c1ccccc1)[C@H](O)C(=O)NO [Tosedostat] | 1.4 | 6.3 | 6.3 | 7.9 | 6.7 | 5.3 | 6.8 | 0.7 |
| CN1CCN(c2cc(C(=O)Nc3ccc4c(c3)-c3c(c(C(N)=O)nn3-c3ccc(F)cc3)CC4)c(Cl)cn2)CC1 [PHA 408] | 0.5 | 5.7 | 1.1 | 5.2 | 0.1 | 4.2 | 3.4 | 5.3 |
| CONC(=O)c1ccccc1Nc1cc(Nc2cc(C)nn2C(C)C)ncc1Cl | 0.5 | 0.2 | 1.5 | 0 | 0 | 0 | 0.1 | 0 |
| CN1CCC(COc2cnc(-c3cccc(Cn4nc(-c5cccc(C#N)c5)ccc4=O)c3)nc2)CC1 [Tepotinib] | 0 | 0 | 0 | 0 | 0 | 0 | 0 | 0 |
| Cc1c(-c2c(-c3ccc(F)o3)sc3ncnc(O[C@H](Cc4ccccc4OCc4ccnn4CC(F)(F)F)C(=O)O)c23)ccc(OCCN2CCN(C)CC2)c1Cl | 16.9 | 3.2 | 8.7 | 1.9 | 0 | 5.3 | 0 | 0 |
| C[C@@H]1COC(Nc2ccc3ncnc(Nc4ccc(OCc5nccs5)c(Cl)c4)c3c2)=N1 [Varlitinib] | 0 | 5.7 | 2.2 | 0 | 0.3 | 0 | 0 | 1.7 |
| Cc1cc([C@@H](C)Nc2ccccc2C(=O)O)c2nc(N3CCOCC3)cc(=O)n2c1 [AZD-6482] | 1.2 | 1.9 | 1.7 | 1.4 | 3.3 | 0 | 0.5 | 0.4 |
| COc1cc2c(N3CCN(C(=O)Nc4ccc(OC(C)C)cc4)CC3)ncnc2cc1OCCCN1CCCCC1 [Tandutinib] | 0 | 0 | 0 | 0 | 0 | 0 | 0 | 0 |
| Cc1cc(F)c(C(=O)Nc2cccc(-c3nncn3C(C)C)n2)cc1-n1cnc(C2CC2)c1 [Selonsertib] | 0 | 0 | 0 | 0 | 0 | 0 | 0 | 0 |
| CC(C)C[C@H](NC(=O)[C@H](CCc1ccccc1)NC(=O)CN1CCOCC1)C(=O)N[C@@H](Cc1ccccc1)C(=O)N[C@@H](CC(C)C)C(=O)[C@@]1(C)CO1 [Carfilzomib] | 31.7 | 11 | 17.4 | 20.4 | 17 | 22.5 | 29.6 | 24.5 |
| Nc1nc(Cl)nc2c1ncn2[C@H]1C[C@H](O)[C@@H](CO)O1 [Cladribine] | 1.4 | 0 | 2.5 | 4.6 | 0.8 | 0 | 4.3 | 0.1 |
| CC(C)[C@@H](CS(=O)(=O)C(C)C)N1C(=O)[C@@](C)(CC(=O)O)C[C@H](c2cccc(Cl)c2)[C@H]1c1ccc(Cl)cc1 [AMG-232] | 0 | 1.8 | 10.5 | 0 | 0 | 0 | 19 | 0 |
| CC1(C)NC(=O)N(c2ccc([N+](=O)[O-])c(C(F)(F)F)c2)C1=O [Nilutamide] | 1.1 | 0 | 0.4 | 0 | 0 | 0 | 0 | 0 |
| Nc1ncn([C@@H]2O[C@H](CO)[C@@H](O)[C@H]2O)c(=O)n1 [Azacitidine] | 2.6 | 3.1 | 8.6 | 4.7 | 0.4 | 1.6 | 4.2 | 0.1 |
| Cc1nc(Nc2n[nH]c3c2CN(C(=O)N[C@H](CN(C)C)c2ccccc2)C3(C)C)c2sccc2n1 | 18.6 | 11.8 | 17.5 | 14.8 | 18.4 | 12.3 | 26.9 | 9.9 |
| C#Cc1cccc(Nc2ncnc3cc4c(cc23)OCCOCCOCCO4)c1 [Icotinib] | 0 | 0.4 | 0.1 | 0.9 | 0.1 | 0 | 0 | 0.1 |
| CCc1cncnc1N1CCN(Cc2nc3ccc(C(F)(F)F)cc3[nH]2)CC1 | 2.1 | 0.5 | 1.7 | 0.7 | 0 | 0 | 0 | 3.3 |
| O=C(O)c1ccc(O)c2ncccc12 [IOX-1] | 0 | 0.4 | 0.8 | 0.9 | 0.8 | 0 | 4.3 | 0 |

| Compound | drug sensitivity score [1] | drug sensitivity score [2] | drug sensitivity score [3] | drug sensitivity score [4] | drug sensitivity score [5] | drug sensitivity score [6] | drug sensitivity score [7] | drug sensitivity score [8] |
| --- | --- | --- | --- | --- | --- | --- | --- | --- |
| Oc1ccc2c(c1)CC[C@H](c1ccccc1)[C@@H]2c1ccc(OCCN2CCCC2)cc1 [Lasofoxifene] | 0 | 0 | 0 | 0 | 0 | 0 | 0 | 0 |
| C[C@@H]1CCN(C(=O)CC#N)C[C@@H]1N(C)c1ncnc2[nH]ccc12 [Tofacitinib] | 0 | 0 | 0 | 0 | 0 | 0 | 0 | 0 |
| CCC1(c2ccc(N)cc2)CCC(=O)NC1=O (centres undefined) [Aminoglutethimide] | 0 | 0 | 0 | 0 | 0 | 0 | 0 | 0 |
| CCc1cc2c(cc1N1CCC(N3CCOCC3)CC1)C(C)(C)c1[nH]c3cc(C#N)ccc3c1C2=O [Alectinib] | 0 | 0.6 | 0 | 0 | 0 | 0 | 0.2 | 0 |
| C[C@@H]1C[C@H]2[C@@H]3CCC4=CC(=O)C=C[C@]4(C)[C@@]3(F)[C@@H](O)C[C@]2(C)[C@@]1(O)C(=O)CO [Dexamethasone] | 0 | 0 | 0 | 0 | 0 | 0 | 0 | 0 |
| NC(=O)N1CCC(CC(=O)N2CCC([C@H]3c4ncc(Br)cc4CCc4cc(Cl)cc(Br)c43)CC2)CC1 [Lonafarnib] | 30.9 | 9.4 | 18.2 | 8.1 | 8.1 | 5.3 | 13 | 12.1 |
| Cc1nc(-c2cn3c(n2)-c2ccc(-c4cnn(C(C)(C)C(N)=O)c4)cc2OCC3)n(C(C)C)n1 [Taselisib] | 2.8 | 7.4 | 4.7 | 6.6 | 5.6 | 0.2 | 4.2 | 3.5 |
| COc1cc2nccc(Oc3ccc(NC(=O)C4(C(=O)Nc5ccc(F)cc5)CC4)cc3)c2cc1OC [Cabozantinib] | 2.1 | 2.2 | 2.5 | 0.2 | 0 | 0 | 0 | 0.8 |
| Cc1cccc(CC(=O)N2CCc3c2ccc(-c2cn(C)c4ncnc(N)c24)c3F)n1 | 0 | 0 | 0.9 | 0.1 | 0 | 0 | 0 | 3.7 |
| CN1CCN(C(=O)c2ccc3cc(CCNc4ncnc5ccc(C#N)cc45)ccc3c2)CC1 [Senexin B] | 0 | 1 | 1.2 | 0.1 | 0 | 0 | 0 | 0.9 |
| Cc1cnc(NC(=O)Nc2cc(Br)c(C)cc2OC[C@@H]2CNCCO2)cn1 [Rabusertib] | 0.9 | 0 | 1.5 | 0 | 0 | 0 | 0 | 2.4 |
| CC[C@@H]1C(=O)N(C)c2cnc(Nc3ccc(C(=O)NC4CCN(C)CC4)cc3OC)nc2N1C1CCCC1 [BI 2536] | 19.7 | 1.7 | 4.3 | 6.7 | 3.5 | 10.5 | 19.6 | 18 |
| CNC(=O)c1ccccc1Nc1nc(Nc2ccc3c(c2OC)CCC[C@H](N2CCN(CCO)CC2)C3)ncc1Cl | 8.2 | 7.2 | 8.6 | 7.6 | 7.9 | 4.5 | 9.2 | 7.7 |
| CN(C)Cc1ccc(S(=O)(=O)n2ccc(/C=C/C(=O)NO)c2)cc1 [Resminostat] | 2.7 | 6.9 | 6.5 | 7.3 | 4.8 | 7.9 | 9.7 | 2.7 |
| CNc1nc(Nc2cn(C(C)(C)C#N)nc2C)ncc1C(F)(F)F [GNE-0877] | 0 | 0 | 0 | 0 | 0 | 0 | 0 | 0 |
| CC(C)n1nc(-c2ccc3oc(N)nc3c2)c2c(N)ncnc21 [Sapanisertib] | 13.2 | 10.1 | 9 | 11.1 | 10.2 | 7.9 | 11.7 | 8.6 |
| CCNC(=O)CCC/C=C\C[C@@H]1[C@@H](/C=C/[C@@H](O)CCc2ccccc2)[C@H](O)C[C@@H]1O [Bimatoprost] | 0 | 0 | 0 | 0 | 0 | 0 | 0 | 0 |
| NCC(=O)Nc1ccc(-n2nc(C(F)(F)F)cc2-c2ccc3c(ccc4ccccc43)c2)cc1 | 0 | 0.4 | 0 | 0.4 | 2.5 | 0 | 3.4 | 0 |
| O=c1[nH]c(C2CCCN2)nc2c1oc1ccc(Cl)cc12 (centres undefined) | 0 | 0.5 | 0 | 0 | 0 | 0 | 0.7 | 0 |
| COc1c(C)cnc(Cn2cnc3c(Cl)nc(N)nc32)c1C [BIIB021] | 13.2 | 11.6 | 15.5 | 7.8 | 8.9 | 10.9 | 17.5 | 8.7 |
| COc1cc2c(cc1OC(C)C)[C@H](c1ccc(Cl)cc1)N(c1ccc(N(C)C[C@H]3CC[C@H](N4CCN(C)C(=O)C4)CC3)cc1)C(=O)C2 [NVP-CGM097] | 5.1 | 7.6 | 13.1 | 5 | 6.2 | 3.7 | 18 | 6.8 |

Source: the supplement of paper PMC8633005
